For five molecules, Hill coefficient results are on record in ChEMBL document CHEMBL1125702 (J Med Chem, 1991).

SMILES strings stand for the structures.

For this data set, the system named is Cynomolgus monkey. Briefly: Compound was evaluated for pseudo Hill coefficients (nH) in cynomolgus monkeys. Type of data set: ADME, organism-based, Macaca fascicularis. The conditions noted are these: in vivo.
The molecule `CCCN1C2CCC1C(C(=O)OC)[C@@H](c1ccc(F)cc1)C2` (stereo not given in full) had a Hill coefficient of 0.7 nH.

`C=CCN1C2CCC1C(C(=O)OC)[C@@H](c1ccc(F)cc1)C2` (stereo not given in full) registered a Hill coefficient of 0.65 nH.

As for `COC(=O)C1C2CCC(C[C@@H]1c1ccc(F)cc1)N2` (stereo not given in full), the Hill coefficient turned out to be 0.64 nH. `COC(=O)[C@H]1[C@@H](c2ccc(F)cc2)C[C@H]2CC[C@H]1N2C` came in with a Hill coefficient of 0.66 nH. As to `COC(=O)[C@H]1[C@@H](OC(=O)c2ccccc2)C[C@@H]2CC[C@H]1N2C` [COCAINE], the Hill coefficient was 0.54 nH.
